Measured values: patent US7345144B2, “Cyclic peptides for treatment of cachexia” (Palatin Technologies, Inc., priority 2001, dated 2008)

Columns and labels:
[1] = biological target: T1, MC1-R (Mus musculus, UniProt Q01727); experiment: cAMP functional assay, MC1-R (B-16 mouse melanoma cells); format: cell-based; details: read-out: EC50 as to MC1-R
[2] = ICV feeding study in rats; format: in vivo; details: rat, 21 hours
Method: (§1) Change in food intake and body weight is evaluated for selected peptides. Rats with indwelling intracerebroventricular cannulas (ICV rats) are obtained from Hilltop Lab Animals, Inc. (Scottdale, Pa.). Animals are individually housed in conventional plexiglass hanging cages and maintained on a controlled 12 hour on/off light cycle. Water and powdered (LabDiet, 5P00 Prolab RMH 3000) or pelleted (Harlan Teklad 2018 18% Protein Rodent Diet) food is provided ad libitum. For 1 week before treatment, 24-hour food intake and body weight change is recorded to assess a baseline for the group during vehicle treatment. The rats are dosed ICV with vehicle or selected peptides (0.1-3 nmol). The changes in body weight and food intake for the 24 hour period after dosing are determined. The changes in body weight and food intake for the 48 hour and 72 hour periods after dosing are also measured to determine reversal of changes in body weight and food intake effects back to baseline levels.
All animals were dosed on the first day with saline ICV, and given a pre-weighed food bowl with food weight recorded at 2 and 21 hours post-ICV injection. On day 2, animals were randomized based on the 21 hour food consumption, with animals eliminated due to low food consumption or food spills. […] Food weights were again recorded at 2, 4, 21 and 24 hours post-ICV injection. In some instances, multiple different tests were conducted with each group containing between 8 and 12 members; the average value is given.

[3] = IV feeding study in male Sprague-Dawley rats; format: in vivo, rat; details: 1 mg/kg, 24 hour period
Method: as §1, with “peptides. Male Sprague-Dawley rats” for “peptides. Rats with indwelling intracerebroventricular cannulas (ICV rats)”, “from Taconic (Germantown, N.Y.).” for “from Hilltop Lab Animals, Inc. (Scottdale, Pa.).”, “dosed IV or IP” for “dosed ICV”, “peptides (0.5-3 mg/kg).” for “peptides (0.1-3 nmol).”, “to determined” for “to determine”
Briefly, male Sprague-Dawley rats (300-350 g) were individually housed in shoe box cages with a 12 hour light/dark period. Food intake and body weights were monitored for 24 hours prior to the start of the study. Rats were randomized by body weight and then dosed just before lights-off with the compound of Example 11 or the same volume of vehicle. A pre-weighed amount of food was provided and food intake was determined at 2, 4, 20 and 24 hours.

[4] = biological target: T2, hMC3-R (Homo sapiens, UniProt P41968); experiment: cAMP functional assay, hMC3-R (HEK-293 cells); format: cell-based; parameters: expressed in transfected cells; host or cells: HEK-293
[5] = biological target: T2, hMC3-R; experiment: Competitive inhibition binding assay using [I125]-NDP-α-MSH, hMC3-R (HEK-293 membranes); details: read-out: Ki (nM) MC3-R; HEK-293 cells transfected with hMC3-R
[6] = biological target: hMC4-R (Homo sapiens, UniProt P32245); experiment: Competitive inhibition binding assay using [I125]-NDP-α-MSH, hMC4-R (HEK-293 membranes); details: read-out: Ki (nM) MC4-R; HEK-293 cells transfected with hMC4-R
[7] = biological target: T1, MC1-R; experiment: Competitive inhibition binding assay using [I125]-NDP-α-MSH, MC1-R (B-16 mouse melanoma cell membranes); details: read-out: Ki (nM) MC1-R; B-16 mouse melanoma cells

T1 sequence (Q01727 whole entry): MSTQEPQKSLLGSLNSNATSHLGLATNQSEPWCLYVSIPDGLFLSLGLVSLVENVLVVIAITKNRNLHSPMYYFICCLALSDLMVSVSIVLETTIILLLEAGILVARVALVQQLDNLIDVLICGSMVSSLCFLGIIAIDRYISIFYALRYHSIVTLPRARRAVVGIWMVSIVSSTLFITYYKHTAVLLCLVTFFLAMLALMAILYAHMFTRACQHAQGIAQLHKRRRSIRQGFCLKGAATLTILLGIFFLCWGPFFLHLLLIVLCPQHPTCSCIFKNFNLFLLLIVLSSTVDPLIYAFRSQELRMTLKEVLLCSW
T2 sequence (P41968 whole entry): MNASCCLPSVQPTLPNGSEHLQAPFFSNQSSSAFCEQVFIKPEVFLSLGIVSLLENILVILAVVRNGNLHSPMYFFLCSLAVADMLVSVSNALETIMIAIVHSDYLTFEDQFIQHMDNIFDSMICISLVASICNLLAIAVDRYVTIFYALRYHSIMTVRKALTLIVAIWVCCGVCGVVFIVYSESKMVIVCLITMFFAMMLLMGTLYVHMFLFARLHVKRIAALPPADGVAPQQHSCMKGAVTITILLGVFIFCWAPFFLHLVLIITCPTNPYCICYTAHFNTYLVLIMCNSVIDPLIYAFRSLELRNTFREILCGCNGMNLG
hMC4-R, sequence (P32245 whole entry): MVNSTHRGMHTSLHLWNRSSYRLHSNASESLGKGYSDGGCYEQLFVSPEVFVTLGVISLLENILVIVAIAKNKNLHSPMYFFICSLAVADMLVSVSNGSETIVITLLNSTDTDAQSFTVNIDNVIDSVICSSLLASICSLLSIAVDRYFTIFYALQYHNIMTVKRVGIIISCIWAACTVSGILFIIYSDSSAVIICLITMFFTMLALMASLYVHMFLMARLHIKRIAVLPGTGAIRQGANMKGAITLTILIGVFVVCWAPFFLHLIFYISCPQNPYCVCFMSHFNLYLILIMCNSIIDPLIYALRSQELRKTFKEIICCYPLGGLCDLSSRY

With “Ac-cyclo(-Asp-Trp-D-Nal 2-Arg-Nal 2-Lys)-NH2 [Example 11]” the EC50 [1] was over 1000 nM, the “average increase in food intake” value ([2]; 0.1 nmol) was 4% and the “average increase in food intake” value ([2]; 0.3 nmol) was 18%. The “average increase in food intake” value ([2]; 1.0 nmol) was 20%, the “increase in food intake” value [3] was 8% and the “agonist/antagonist status as to MC3-R” value [4] was “inactive”. For the same substance, the Ki [5] was 2 nM, the Ki [6] was 0.03 nM and the Ki [7] was 5680 nM.
